Laboratory results reported in patent publication US20240252488A1 (KOREA RESEARCH INSTITUTE OF CHEMICAL TECHNOLOGY, priority 2020, published 2024).

How the values were obtained:
[1] = biological target: T1, MLKL (Homo sapiens, UniProt Q8NB16); assay: MLKL degradation assay in HepG2 cell line (western blot); format: cell-based; set-up: endogenous in cells; host or cells: HepG2 or HaCaT; conditions: cell line not given; for Degradation assay (Degradation %) 1 μM: compound 1 μM; for Degradation assay (Degradation %) 10 μM: compound 10 μM
T1 sequence (Q8NB16 1-471): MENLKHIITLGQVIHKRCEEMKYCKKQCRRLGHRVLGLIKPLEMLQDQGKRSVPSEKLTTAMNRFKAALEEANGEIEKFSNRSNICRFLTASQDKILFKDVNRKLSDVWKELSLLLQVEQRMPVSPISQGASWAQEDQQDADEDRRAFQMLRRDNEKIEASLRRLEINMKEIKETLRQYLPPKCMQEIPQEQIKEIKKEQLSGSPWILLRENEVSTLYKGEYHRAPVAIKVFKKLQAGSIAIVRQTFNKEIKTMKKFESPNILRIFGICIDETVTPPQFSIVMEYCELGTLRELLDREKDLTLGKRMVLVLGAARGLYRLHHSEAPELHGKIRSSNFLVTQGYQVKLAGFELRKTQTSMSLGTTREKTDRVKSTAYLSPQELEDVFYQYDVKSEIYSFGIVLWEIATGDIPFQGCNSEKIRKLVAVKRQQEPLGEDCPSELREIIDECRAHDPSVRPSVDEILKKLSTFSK
In short: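 Chemiluminescent western blot signal reports remaining MLKL protein in HepG2 cells after 20-24 h treatment with compound at a final 1 or 10 μM. Equal protein (10-15 μg, BCA) is loaded per lane.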

[2] = biological target: T1, MLKL; assay: Measurement of binding affinity with MLKL receptor (competitive binding assay, Kd); set-up: made in house; host or cells: HEK 293 cell line (T7 phage in E. coli BL21-derived host is also described)
In short: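 qPCR of MLKL eluted from liganded beads served as the read-out, from which Kd was derived. The protein was made in HEK 293 cells with a DNA tag, and test compounds competed with the bead-bound ligand at 0.9% final DMSO.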

[3] = test system: FADD−/− Jurkat cells; assay: Necroptosis inhibition assay, TNF-α-induced necroptosis (CellTiter-Glo 2.0); format: cell-based, human; conditions: TNF-α 15 ng/mL; for Necroptosis inhibition assay (Rescue %) 1 μM: compound 1 μM; for Necroptosis inhibition assay (Rescue %) 10 μM: compound 10 μM
In short: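 Compound is added to cells at final concentrations of 0.1, 1 and 10 μM and left 30 minutes at room temperature. Necroptosis is induced with 15 ng/mL TNF-α, culture continues 20 to 24 hours at 37° C, and ATP-based luminescence reports viability.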

SMILES	Degradation assay (Degradation %) 1 μM [1] [%]	Degradation assay (Degradation %) 10 μM [1] [%]	Kd [2] [nM]	Necroptosis inhibition assay (Rescue %) 1 μM [3] [%]	Necroptosis inhibition assay (Rescue %) 10 μM [3] [%]
Nc1ncc(-c2cnn(C3CCN(C(=O)C4CCN(C(=O)CC5CCN(c6cccc7c6C(=O)N(C6CCC(=O)NC6=O)C7=O)CC5)CC4)CC3)c2)nc1C(=O)O[C@@H](C(=O)Nc1ccc(F)cc1)c1ccccc1 (stereo partly drawn) [TDH-374, (R)-2-((4-fluorophenyl)amino)-2-oxo-1-phenylethyl 3-amino-6-(1-(1-(1-(2-(1-(2-(2,6-dioxopiperidin-3-yl)-1,3-dioxoisoindolin-4-yl)piperidin-4-yl)acetyl)piperidine-4-carbonyl)piperidin-4-yl)-1H-pyrazol-4-yl)pyrazine-2-carboxylate]	93.73	91.38	2.7	39.14	32.53
Nc1ncc(-c2cnn(C3CCN(C(=O)C4CCN(C(=O)CC5CCN(c6ccc7c(c6)C(=O)N(C6CCC(=O)NC6=O)C7=O)CC5)CC4)CC3)c2)nc1C(=O)O[C@@H](C(=O)Nc1ccc(F)cc1)c1ccccc1 (stereo partly drawn) [TDH-375, (R)-2-((4-fluorophenyl)amino)-2-oxo-1-phenylethyl 3-amino-6-(1-(1-(1-(2-(1-(2-(2,6-dioxopiperidin-3-yl)-1,3-dioxoisoindolin-5-yl)piperidin-4-yl)acetyl)piperidine-4-carbonyl)piperidin-4-yl)-1H-pyrazol-4-yl)pyrazine-2-carboxylate]	93.86	86.43	2.3	30.67	20.44
Nc1ncc(-c2cnn(C3CCN(CCOC4CCN(C(=O)CCc5cccc6c5C(=O)N(C5CCC(=O)NC5=O)C6=O)CC4)CC3)c2)nc1C(=O)O[C@@H](C(=O)Nc1ccc(F)cc1)c1ccccc1 (stereo partly drawn) [TDH-378, (R)-2-((4-fluorophenyl)amino)-2-oxo-1-phenylethyl 3-amino-6-(1-(1-(2-((1-(3-(2-(2,6-dioxopiperidin-3-yl)-1,3-dioxoisoindolin-4-yl)propanoyl)piperidin-4-yl)oxy)ethyl)piperidin-4-yl)-1H-pyrazol-4-yl)pyrazine-2-carboxylate]	88.62	80.01	2	49.61	28.89
Nc1ncc(-c2cnn(C3CCN(CCOC4CCN(C(=O)CCc5ccc6c(c5)C(=O)N(C5CCC(=O)NC5=O)C6=O)CC4)CC3)c2)nc1C(=O)O[C@@H](C(=O)Nc1ccc(F)cc1)c1ccccc1 (stereo partly drawn) [TDH-379, (R)-2-((4-fluorophenyl)amino)-2-oxo-1-phenylethyl 3-amino-6-(1-(1-(2-((1-(3-(2-(2,6-dioxopiperidin-3-yl)-1,3-dioxoisoindolin-5-yl)propanoyl)piperidin-4-yl)oxy)ethyl)piperidin-4-yl)-1H-pyrazol-4-yl)pyrazine-2-carboxylate]	69.78	88.75	2.9	36.70	28.98
Nc1ncc(-c2cnn(C3CCN(C(=O)C4CCN(C(=O)CCc5cccc6c5C(=O)N(C5CCC(=O)NC5=O)C6=O)CC4)CC3)c2)nc1C(=O)O[C@@H](C(=O)Nc1ccc(F)cc1)c1ccccc1 (stereo partly drawn) [TDH-380, (R)-2-((4-fluorophenyl)amino)-2-oxo-1-phenylethyl 3-amino-6-(1-(1-(1-(3-(2-(2,6-dioxopiperidin-3-yl)-1,3-dioxoisoindolin-4-yl)propanoyl)piperidine-4-carbonyl)piperidin-4-yl)-1H-pyrazol-4-yl)pyrazine-2-carboxylate]	86.88	95.41	1.5	38.37	35.96
Nc1ncc(-c2cnn(C3CCN(C(=O)C4CCN(C(=O)CCc5ccc6c(c5)C(=O)N(C5CCC(=O)NC5=O)C6=O)CC4)CC3)c2)nc1C(=O)O[C@@H](C(=O)Nc1ccc(F)cc1)c1ccccc1 (stereo partly drawn) [TDH-381, (R)-2-((4-fluorophenyl)amino)-2-oxo-1-phenylethyl 3-amino-6-(1-(1-(1-(3-(2-(2,6-dioxopiperidin-3-yl)-1,3-dioxoisoindolin-5-yl)propanoyl)piperidine-4-carbonyl)piperidin-4-yl)-1H-pyrazol-4-yl)pyrazine-2-carboxylate]	78.38	77.07	1.5	32.48	28.99

Compounds with a lower Kd [2], results first:

Degradation assay (Degradation %) 1 μM [1] [%]	Degradation assay (Degradation %) 10 μM [1] [%]	Kd [2] [nM]	SMILES	Necroptosis inhibition assay (Rescue %) 1 μM [3] [%]	Necroptosis inhibition assay (Rescue %) 10 μM [3] [%]
87.78	86.6	1.4	Nc1ncc(-c2cnn(C3CCN(CCOC4CCN(C(=O)COc5ccc6nnn(C7CCC(=O)NC7=O)c(=O)c6c5)CC4)CC3)c2)nc1C(=O)O[C@@H](C(=O)Nc1ccc(F)cc1)c1ccccc1 (stereo partly drawn) [TDH-373, (R)-2-((4-fluorophenyl)amino)-2-oxo-1-phenylethyl 3-amino-6-(1-(1-(2-((1-(2-((3-(2,6-dioxopiperidin-3-yl)-4-oxo-3,4-dihydrobenzo[d][1,2,3]triazin-6-yl)oxy)acetyl)piperidin-4-yl)oxy)ethyl)piperidin-4-yl)-1H-pyrazol-4-yl)pyrazine-2-carboxylate]	62.68	40.09
89.95	82.82	0.61	Nc1ncc(-c2cnn(C3CCN(CCC4CCN(C(=O)CCc5ccc6c(c5)C(=O)N(C5CCC(=O)NC5=O)C6=O)CC4)CC3)c2)nc1C(=O)O[C@@H](C(=O)Nc1ccc(F)cc1)c1ccccc1 (stereo partly drawn) [TDH-377, (R)-2-((4-fluorophenyl)amino)-2-oxo-1-phenylethyl 3-amino-6-(1-(1-(2-(1-(3-(2-(2,6-dioxopiperidin-3-yl)-1,3-dioxoisoindolin-5-yl)propanoyl)piperidin-4-yl)ethyl)piperidin-4-yl)-1H-pyrazol-4-yl)pyrazine-2-carboxylate]	62.50	27.37
93.13	86.31	0.54	Nc1ncc(-c2cnn(C3CCN(CCC4CCN(C(=O)CCc5cccc6c5C(=O)N(C5CCC(=O)NC5=O)C6=O)CC4)CC3)c2)nc1C(=O)O[C@@H](C(=O)Nc1ccc(F)cc1)c1ccccc1 (stereo partly drawn) [TDH-376, (R)-2-((4-fluorophenyl)amino)-2-oxo-1-phenylethyl 3-amino-6-(1-(1-(2-(1-(3-(2-(2,6-dioxopiperidin-3-yl)-1,3-dioxoisoindolin-4-yl)propanoyl)piperidin-4-yl)ethyl)piperidin-4-yl)-1H-pyrazol-4-yl)pyrazine-2-carboxylate]	76.20	30.33
81.82	81.68	0.42	Nc1ncc(-c2cnn(C3CCN(CCCN4CCN(C(=O)CCc5cccc6c5C(=O)N(C5CCC(=O)NC5=O)C6=O)CC4)CC3)c2)nc1C(=O)O[C@@H](C(=O)Nc1ccc(F)cc1)c1ccccc1 (stereo partly drawn) [TDH-382, (R)-2-((4-fluorophenyl)amino)-2-oxo-1-phenylethyl 3-amino-6-(1-(1-(3-(4-(3-(2-(2,6-dioxopiperidin-3-yl)-1,3-dioxoisoindolin-4-yl)propanoyl)piperazin-1-yl)propyl)piperidin-4-yl)-1H-pyrazol-4-yl)pyrazine-2-carboxylate]	59.24	22.12
79.04	81.95	0.42	Nc1ncc(-c2cnn(C3CCN(CCCN4CCN(C(=O)CCc5ccc6c(c5)C(=O)N(C5CCC(=O)NC5=O)C6=O)CC4)CC3)c2)nc1C(=O)O[C@@H](C(=O)Nc1ccc(F)cc1)c1ccccc1 (stereo partly drawn) [TDH-383, (R)-2-((4-fluorophenyl)amino)-2-oxo-1-phenylethyl 3-amino-6-(1-(1-(3-(4-(3-(2-(2,6-dioxopiperidin-3-yl)-1,3-dioxoisoindolin-5-yl)propanoyl)piperazin-1-yl)propyl)piperidin-4-yl)-1H-pyrazol-4-yl)pyrazine-2-carboxylate]	46.33	25.19
